Laboratory results: patent US10738028B2, “Spiro three-membered ring, spiro five-membered ring peptide deformylase inhibitor and use thereof in antibacteria and anti-tumor” (priority 2016, dated 2020)
Converted amounts (≈) assume the structure as drawn. Where two headings read alike, the source gives them in different places.

Tests used:
[1] = system: Enterococcus faecalis (EFA); assay: MIC, two-fold agar dilution (CLSI), clinical isolates; format: cell-based
Outline: (§1)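 Samples are serially diluted two-fold in agar following CLSI guidance. Plates are then inoculated with the tested strains. The lowest inhibiting concentration is recorded as MIC.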

[2] = system: Escherichia coli (including ESBLs, non-ESBLs); assay: as above; format: cell-based
Outline: as §1

[3] = system: methicillin-resistant Staphylococcus aureus (MRSA); assay: as above; format: cell-based
Outline: as §1

[4] = system: methicillin-resistant Staphylococcus epidermidis (MRSE); assay: as above; format: cell-based
Outline: as §1

[5] = system: methicillin-sensitive Staphylococcus aureus (MSSA); assay: as above; format: cell-based
Outline: as §1

[6] = system: methicillin-sensitive Staphylococcus epidermidis (MSSE); assay: as above; format: cell-based
Outline: as §1

[7] = system: HCT-116 colorectal cancer cell line; assay: CCK-8 proliferation inhibition; format: cell-based
Outline: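 Cells were plated overnight at 2000 cells/well, then compound in culture medium was added at a range of final concentrations. After 72 hours in a CO2 incubator, medium was replaced with 1:10 CCK-8 solution for the read-out.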

[8] = system: methemoglobin in blood samples of three healthy volunteers; assay: Toxicity on methemoglobin in vitro (whole blood with S9 and NADPH, absorbance at 630 nm); format: cell-based, human; settings: for MetHb % (n = 3): 500 μM compound, whole blood + S9 + NADPH, 5 hours at 37° C.; for probability of methemoglobin formation in blood compared with the control drugs LBM415 and GSK1322322: toxicity test in vitro, in words
Protocol: Because PDF inhibitors such as LBM415 and GSK1322322 can produce active species such as aromatic hydroxylamine and aromatic hydrazines in metabolic process, and cause human methemoglobinemia. To this end, continuous wavelength method was adopted in this invention to scan the absorption spectrum of blood samples in the wavelength range of 500 to 700 nm in the ultraviolet-visible spectrophotometer, and the contents of methemoglobin in blood samples of three healthy volunteers were calculated, after being effected by the synthesized compounds.
Experimental materials: Nicotinamide adenine dinucleotide phosphate (NADPH) reduction system: glucose-6-disodium phosphate, nicotinamide adenine dinucleoside phosphate and glucose-6-phosphate dehydrogenase (purchased from Shanghai yuanye Bio-Technology Co., Ltd) were added to 1 mL of phosphate buffer solution (PBS, pH 7.4), and the mixture was shaked in a shaker type water bath at 37° C. for 10 min, and then cooled to 0° C. Mixed human hepatocytes fraction S9 was purchased from Xenotech (20 mg S9 protein/1 mL suspension medium). Compounds were prepared to stock solution at a concentration of 50 mM, which was stored at −20° C. for use. Dapsone was used as positive control experimental reagent, which was purchased from Sigma Aldrich. 1% w/v triton X-100 was self-prepared. Blood samples were collected using Vacutainer tubes containing EDTA anticoagulants (BD, Franklin Lakes, USA), which were sampled from three healthy volunteers and used immediately after sampling.
Preparation of incubation system for blood samples and drugs: 250 μL of incubation system was consist of 220 μL of whole blood, 25 μL of S9 (final concentration: 2 mg S9 protein/mL incubation solution), 2.5 μL of NADPH form system (final concentration: 10 mM G-6-P, 1 mM NADP, 7.5 Units/mL) and 2.5 μL of stock solution of a compound (final concentration 500 μM). […] of incubation system was placed in an Eppendorf tube and incubated for 5 hours at 37° C. in water bath.
Determination of the content of methemoglobin: 60 μL of an incubated sample was taken and lysed with 3.0 mL of 1% Triton X-100. The content of methemoglobin (MetHb) was measured by an ultraviolet-visible spectrophotometer, with the Triton X-100 solution used as blank control. A sample was placed in a cuvette, 1 minute later, the spectrums of the sample in the wavelength range from 500 nm to 700 nm were recorded. The sample was added with 2 mg of potassium ferricyanide, and was allowed to stay stationary for 2 minutes for completely oxidization of ferrous iron in the sample, and standard spectrum of methemoglobin with saturated potassium ferricyanide. The percentage of methemoglobin formation (MetHb %) was obtained by the ratio of absorbance at 630 nm. MetHb %=(A′−AB′)/AM′, wherein, A′ was the total absorbance of the sample at 630 nm, AB′ was the base absorbance of the reduced blood in the sample at 630 nm, and AM′ was the absorbance of oxidized blood with saturated potassium ferricyanide at 630 nm.

[9] = MIC in vitro anti-bacterial experiments, Gram-positive bacteria; format: cell-based; settings: read-out: minimum inhibitory concentration against Gram-positive bacteria
Outline: as §1

[10] = system: A549 lung cancer cell line; assay: CCK-8 proliferation inhibition; format: cell-based; settings: Homo sapiens, A549, 72 h, concentration of 30 μM
Outline: (§2)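 Plating at 2000 cells/well, then incubation overnight at 37° C. Next, a range of compound concentrations for 72 hours (control 1‰ DMSO). Finally, medium decanted and CCK-8 diluted 1:10 added.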

[11] = system: BEL-7402 liver cancer cell line; assay: CCK-8 proliferation inhibition; format: cell-based; settings: concentration of 30 μM, 72 hours, 30 µM
Outline: as §2

[12] = system: MGC-803 gastric cancer cell line; assay: CCK-8 proliferation inhibition; format: cell-based; settings: concentration of 30 μM
Outline: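 Proliferation was measured with 1:10 diluted CCK-8 after a 72-hour incubation with the inhibitors at various final concentrations, using 1‰ DMSO as the control. Cells were plated at 2000 per well. Culture media contained 10% newborn bovine serum: 1640 for Jurkat and MGC-803, F12 for PC3, DMEM high glucose for MCF-7.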

[13] = strain printed MRSA 14-1 (second line of that name, r23, before MRSE 14-2)

Row | SMILES | MIC (anti-bacterial activity) ([1]; strain EFA 14-1) | MIC (anti-bacterial activity) ([1]; strain EFA 14-2) | MIC (anti-bacterial activity) ([1]; strain EFA 14-3) | MIC (anti-bacterial activity) ([1]; strain EFA 14-5) | MIC (anti-bacterial activity) ([2]; strain ECO+ 14-1) | MIC (anti-bacterial activity) ([2]; strain ECO+ 14-2) | MIC (anti-bacterial activity) ([2]; strain ECO− 14-1) | MIC (anti-bacterial activity) ([2]; strain ECO− 14-2) | MIC (anti-bacterial activity) ([3]; strain MRSA 14-1) | MIC (anti-bacterial activity) ([3]; strain MRSA 14-2) | MIC (anti-bacterial activity) ([3]; strain MRSA 14-4) | MIC (anti-bacterial activity) ([3]; strain MRSA 14-5) | MIC (anti-bacterial activity) [3, 13] | MIC (anti-bacterial activity) ([4]; strain MRSE 14-2) | MIC (anti-bacterial activity) ([4]; strain MRSE 14-3) | MIC (anti-bacterial activity) ([4]; strain MRSE 14-4) | MIC (anti-bacterial activity) ([5]; strain MSSA 14-1) | MIC (anti-bacterial activity) ([5]; strain MSSA 14-2) | MIC (anti-bacterial activity) ([5]; strain MSSA 14-3) | MIC (anti-bacterial activity) ([5]; strain MSSA 14-4) | other results
1 | CCCC[C@H](CN(O)C=O)C(=O)N1CC2(CC2)C[C@H]1C(=O)Nc1cc(C(C)(C)C)on1 [Example 3] | 0.5 µg/mL (≈ 1.15 µM) | 0.5 µg/mL (≈ 1.15 µM) | 0.5 µg/mL (≈ 1.15 µM) | > 128 µg/mL | 1 µg/mL (≈ 2.3 µM) | 64 µg/mL (≈ 147 µM) | 64 µg/mL (≈ 147 µM) | 64 µg/mL (≈ 147 µM) | 0.06 µg/mL (≈ 0.138 µM) | 0.06 µg/mL (≈ 0.138 µM) | < 0.008 µg/mL | 0.06 µg/mL (≈ 0.138 µM) | 0.03 µg/mL (≈ 0.069 µM) | 0.03 µg/mL (≈ 0.069 µM) | 0.015 µg/mL (≈ 0.0345 µM) | 0.03 µg/mL (≈ 0.069 µM) | 0.125 µg/mL (≈ 0.288 µM) | 0.125 µg/mL (≈ 0.288 µM) | 0.25 µg/mL (≈ 0.575 µM) | 0.06 µg/mL (≈ 0.138 µM) | MIC (anti-bacterial activity) ([6]; strain MSSE 14-1): 0.03 µg/mL (≈ 0.069 µM); MIC (anti-bacterial activity) ([6]; strain MSSE 14-2): 0.125 µg/mL (≈ 0.288 µM); MIC (anti-bacterial activity) ([6]; strain MSSE 14-3): 0.015 µg/mL (≈ 0.0345 µM); MIC (anti-bacterial activity) ([6]; strain MSSE 14-4): 0.015 µg/mL (≈ 0.0345 µM); inhibition at 30 µM ([7]; Homo sapiens, HCT-116, 72 h, read-out: HCT116 inhibition rate/%): 2%; MetHb % (n = 3) [8]: 3.33 ± 0.06%; probability of methemoglobin formation in blood compared with the control drugs LBM415 and GSK1322322 [8]: lower probability of methemoglobin formation in blood; MIC [9]: < 0.008 µg/mL
2 | CCCC[C@H](CN(O)C=O)C(=O)N1CC2(CC2)C[C@H]1C(=O)Nc1ncc(C)s1 [Example 6] | 0.125 µg/mL (≈ 0.306 µM) | 0.5 µg/mL (≈ 1.22 µM) | 0.5 µg/mL (≈ 1.22 µM) | 0.25 µg/mL (≈ 0.612 µM) | 0.125 µg/mL (≈ 0.306 µM) | 32 µg/mL (≈ 78.3 µM) | 32 µg/mL (≈ 78.3 µM) | 32 µg/mL (≈ 78.3 µM) | < 0.008 µg/mL | < 0.008 µg/mL | < 0.008 µg/mL | < 0.008 µg/mL | < 0.008 µg/mL | < 0.008 µg/mL | < 0.008 µg/mL | < 0.008 µg/mL | < 0.008 µg/mL | < 0.008 µg/mL | < 0.008 µg/mL | < 0.008 µg/mL | MIC (anti-bacterial activity) ([6]; strain MSSE 14-1): < 0.008 µg/mL; MIC (anti-bacterial activity) ([6]; strain MSSE 14-2): < 0.008 µg/mL; MIC (anti-bacterial activity) ([6]; strain MSSE 14-3): < 0.008 µg/mL; MIC (anti-bacterial activity) ([6]; strain MSSE 14-4): < 0.008 µg/mL; HCT116 inhibition rate/% ([7]; concentration of 30 μM, 72 hours, CCK-8, 30 µM): 86%; inhibition at 30 µM [10]: 26%; Inhibition of proliferation, Liver cancer BEL-7402 [11]: 74%; inhibition at 30 µM ([12]; Homo sapiens, MGC-803, 72 h): > 50%; Inhibition of proliferation, Gastric cancer MGC-803 ([12]; 72 hours, 30 µM): 66%; MetHb % (n = 3) [8]: 2.25 ± 0.02%; probability of methemoglobin formation in blood compared with the control drugs LBM415 and GSK1322322 [8]: lower probability of methemoglobin formation in blood; MIC ([9]; lowest MIC reached): < 0.008 µg/mL
